Assay results taken from patent US20200368247A1, “CENICRIVIROC FOR THE TREATMENT OF FIBROSIS” (Tobira Therapeutics, Inc., priority 2014, published 2020).
Where two headings read alike, the source gives them in different places.

Tests used:
[1] = molecular target: T1, CCR2 (Homo sapiens, UniProt P41597); assay: CCR2 receptor occupancy / MCP-1-induced CCR2 internalization in PBMCs, flow cytometry; type: cell-based
T1 construct: endogenous in cells; host or cells: monocytes within PBMCs from HIV+ and HIV- subjects
T1 sequence (P41597 1-360 isoform P41597-2): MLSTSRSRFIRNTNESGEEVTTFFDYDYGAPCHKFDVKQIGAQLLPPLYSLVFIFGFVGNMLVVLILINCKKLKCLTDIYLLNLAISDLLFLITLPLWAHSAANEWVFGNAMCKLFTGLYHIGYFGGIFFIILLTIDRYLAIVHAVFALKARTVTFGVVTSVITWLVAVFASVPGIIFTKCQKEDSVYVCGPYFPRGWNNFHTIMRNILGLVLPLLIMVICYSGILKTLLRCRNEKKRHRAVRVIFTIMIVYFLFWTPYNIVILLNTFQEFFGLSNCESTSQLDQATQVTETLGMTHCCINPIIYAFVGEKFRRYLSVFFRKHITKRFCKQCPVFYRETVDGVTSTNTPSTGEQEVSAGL
Protocol: The capacity of each drug to inhibit CCR5 or CCR2 internalization was evaluated. Cell-surface expression of CCR5 and CCR2 was assessed by flow cytometry, and fluorescence values were converted into molecules of equivalent soluble fluorescence (MESF).

[2] = tested on: male Sprague-Dawley rats with TAA-induced fibrosis; assay: Rat model of thioacetamide-induced liver fibrosis and cirrhosis; type: in vivo; conditions: 8 weeks
Protocol: Fibrosis was induced in male Sprague-Dawley rats by intraperitoneal administration of TAA 150 mg/kg 3 times/week for 8 weeks. […] Biochemical, gene expression and histologic evaluations of the liver were conducted.

[3] = for SAE: Suicidal ideation: through Week 48
Excerpt: Subjects with a history of HIV-2, hepatitis B and/or C, cirrhosis of the liver or any known active or chronic active liver disease were excluded from the study.
Most AEs were mild or moderate (Grade 1 or Grade 2). […] None of the Grade ≥3 AEs (preferred terms) were reported in more than 1 subject. Table 28 provides an overview of deaths, SAES, AEs, AEs by severity, AEs related to study medication, and AE leading to discontinuation.

[4] = tested on: NASH mice; assay: STAM mouse model of NASH, anti-HCC effects, week 18; conditions: for Body weight / Maximum diameter of visible tumor nodules (mm) / mice with GS-positive nodules / mice with HCC lesions (HE staining): week 18; for mice that died (survival analysis): 6 to 18 weeks
Protocol: Group 1-Vehicle: Eighteen NASH mice were orally administered vehicle at a volume of 10 mL/kg twice daily (9:00 and 19:00) from 6 weeks of age.

[5] = All CVC (N = 115), EFV (N = 28)
[6] = CVC-high 100 mg/kg/day, listed as Cenicriviroc
[7] = CVC-low 20 mg/kg/day, listed as Cenicriviroc

SMILES: CCCCOCCOc1ccc(-c2ccc3c(c2)/C=C(/C(=O)Nc2ccc([S@@+]([O-])Cc4cncn4CCC)cc2)CCCN3CC(C)C)cc1 [CVC, (S)-8-[4-(2-Butoxyethoxy)phenyl]-1-isobutyl-N-(4-{[(1-propyl-1H-imidazol-5-yl)methyl]sulfinyl}phenyl)-1,2,3,4-tetrahydro-1-benzazocine-5-carboxamide]
- concentration required to reach >80% receptor occupancy ([1]; CCR2, average): 1.8 nM
- prevention of MCP-1-induced CCR2 internalization ([1]; PBMCs): at lower concentrations than BMS-22
- CCR2 cell-surface expression ([1]; in the absence of MCP-1, monocytes): decreased cell-surface expression on monocytes
- reduction of fibrosis by collagen morphometry ([2]; Group 1a, 30 mg/kg/day concurrently with TAA): 49%
- reduction of fibrosis by collagen morphometry ([2]; Group 1b, 100 mg/kg/day concurrently with TAA): 38%
- Deaths [3, 5]: 0 n
- SAE: Suicidal ideation [3, 5]: 0 n
- Grade 3 or 4 AE: Suicidal ideation ([3]; All CVC (N = 115), EFV (N = 28; Grade 4 event)): 0 n
- Deaths ([3]; CVC 100 mg (N = 58)): 0 n
- Grade 3 or 4 AE: Suicidal ideation ([3]; CVC 100 mg (N = 58)): 0 n
- SAE: Suicidal ideation ([3]; CVC 100 mg (N = 58)): 0 n
- Deaths ([3]; CVC 200 mg (N = 57)): 0 n
- Grade 3 or 4 AE: Suicidal ideation ([3]; CVC 200 mg (N = 57)): 0 n
- SAE: Suicidal ideation ([3]; CVC 200 mg (N = 57)): 0 n
- AE leading to discontinuation: Abnormal dreams ([3]; human, in vivo, 48 week): 0 n
- AE leading to discontinuation: Aggression ([3]; human, in vivo, 48 week): 1 n
- AE leading to discontinuation: Anxiety ([3]; human, in vivo, 48 week): 0 n
- AE leading to discontinuation: Depression ([3]; human, in vivo, 48 week): 1 n
- AE leading to discontinuation: Dermatitis allergic ([3]; human, in vivo, 48 week): 0 n
- AE leading to discontinuation: Ear and labyrinth disorders ([3]; human, in vivo, 48 week): 0 n
- AE leading to discontinuation: Insomnia ([3]; human, in vivo, 48 week): 0 n
- AE leading to discontinuation: Psychiatric disorders ([3]; human, in vivo, 48 week): 1 n
- AE leading to discontinuation: Rash ([3]; human, in vivo, 48 week): 0 n
- AE leading to discontinuation: Skin and subcutaneous tissue disorders ([3]; human, in vivo, 48 week): 0 n
- AE leading to discontinuation: Tachyphrenia ([3]; human, in vivo, 48 week): 0 n
- AE leading to discontinuation: Thinking abnormal ([3]; human, in vivo, 48 week): 1 n
- AE leading to discontinuation: Tinnitus ([3]; human, in vivo, 48 week): 0 n
- Any AE, % ([3]; human, in vivo, 48 week): (86%)
- Depression, % ([3]; human, in vivo, 48 week): (3%)
- Diarrhoea, % ([3]; human, in vivo, 48 week): (15%)
- Fatigue, % ([3]; human, in vivo, 48 week): (12%)
- Headache, % ([3]; human, in vivo, 48 week): (14%)
- Nausea, % ([3]; human, in vivo, 48 week): (16%)
- Rash, % ([3]; human, in vivo, 48 week): (12%)
- Subjects with AEs leading to discontinuation of study medication ([3]; human, in vivo, 48 week): 1 n
- Subjects with AEs related to study medication ([3]; human, in vivo, 48 week): 54 n
- Subjects with AEs, by worst grade severity: Grade 1 ([3]; human, in vivo, 48 week): 50 n
- Subjects with AEs, by worst grade severity: Grade 2 ([3]; human, in vivo, 48 week): 44 n
- Subjects with AEs, by worst grade severity: Grade 3 ([3]; human, in vivo, 48 week): 5 n
- Subjects with AEs, by worst grade severity: Grade 4 ([3]; human, in vivo, 48 week): 0 n
- Syphilis, % ([3]; human, in vivo, 48 week): (1%)
- Upper respiratory tract infection, % ([3]; human, in vivo, 48 week): (16%)
- AE leading to discontinuation: Disturbance in attention ([3]; human, in vivo, 48 weeks): 0 n
- AE leading to discontinuation: Dizziness ([3]; human, in vivo, 48 weeks): 0 n
- AE leading to discontinuation: Eye disorders ([3]; human, in vivo, 48 weeks): 0 n
- AE leading to discontinuation: Gastrointestinal disorders ([3]; human, in vivo, 48 weeks): 0 n
- AE leading to discontinuation: General disorders and administration site conditions ([3]; human, in vivo, 48 weeks): 1 n
- AE leading to discontinuation: Hypoaesthesia ([3]; human, in vivo, 48 weeks): 0 n
- AE leading to discontinuation: Malaise ([3]; human, in vivo, 48 weeks): 1 n
- AE leading to discontinuation: Musculoskeletal and connective tissue disorders ([3]; human, in vivo, 48 weeks): 0 n
- AE leading to discontinuation: Musculoskeletal discomfort ([3]; human, in vivo, 48 weeks): 0 n
- AE leading to discontinuation: Nausea ([3]; human, in vivo, 48 weeks): 0 n
- AE leading to discontinuation: Nervous system disorders ([3]; human, in vivo, 48 weeks): 0 n
- AE leading to discontinuation: Photophobia ([3]; human, in vivo, 48 weeks): 0 n
- Abnormal dreams, % ([3]; human, in vivo, 48 weeks): (8%)
- Any AE leading to discontinuation of study drug ([3]; human, in vivo, 48 weeks): 1 n
- Any Grade 3 AE ([3]; human, in vivo, 48 weeks): 5 n
- Any Grade 4 AE ([3]; human, in vivo, 48 weeks): 0 n
- Any SAE ([3]; human, in vivo, 48 weeks): 2 n
- Dizziness, % ([3]; human, in vivo, 48 weeks): (10%)
- Grade 3 or 4 AE: Abdominal pain ([3]; human, in vivo, 48 weeks): 1 n
- Grade 3 or 4 AE: Blindness unilateral ([3]; human, in vivo, 48 weeks): 1 n
- Grade 3 or 4 AE: Blood creatine phosphokinase increased ([3]; human, in vivo, 48 weeks): 1 n
- Grade 3 or 4 AE: Cardiac disorders ([3]; human, in vivo, 48 weeks): 1 n
- Grade 3 or 4 AE: Corneal infection ([3]; human, in vivo, 48 weeks): 1 n
- Grade 3 or 4 AE: Depression ([3]; human, in vivo, 48 weeks): 0 n
- Grade 3 or 4 AE: Dermatitis allergic ([3]; human, in vivo, 48 weeks): 0 n
- Grade 3 or 4 AE: Ear and labyrinth disorders ([3]; human, in vivo, 48 weeks): 0 n
- Grade 3 or 4 AE: Eye disorders ([3]; human, in vivo, 48 weeks): 1 n
- Grade 3 or 4 AE: Gastrointestinal disorders ([3]; human, in vivo, 48 weeks): 1 n
- Grade 3 or 4 AE: General disorders and administration site conditions ([3]; human, in vivo, 48 weeks): 1 n
- Grade 3 or 4 AE: Infections and infestations ([3]; human, in vivo, 48 weeks): 1 n
- Grade 3 or 4 AE: Investigations ([3]; human, in vivo, 48 weeks): 1 n
- Grade 3 or 4 AE: Palpitations ([3]; human, in vivo, 48 weeks): 1 n
- Grade 3 or 4 AE: Psychiatric disorders ([3]; human, in vivo, 48 weeks): 1 n
- Grade 3 or 4 AE: Pyrexia ([3]; human, in vivo, 48 weeks): 1 n
- Grade 3 or 4 AE: Skin and subcutaneous tissue disorders ([3]; human, in vivo, 48 weeks): 0 n
- Grade 3 or 4 AE: Stress ([3]; human, in vivo, 48 weeks): 1 n
- Grade 3 or 4 AE: Tinnitus ([3]; human, in vivo, 48 weeks): 0 n
- Grade 3 or 4 AE: Weight decreased ([3]; human, in vivo, 48 weeks): 0 n
- Insomnia, % ([3]; human, in vivo, 48 weeks): (6)
- Lymphadenopathy, % ([3]; human, in vivo, 48 weeks): (6%)
- Nasopharyngitis, % ([3]; human, in vivo, 48 weeks): (9%)
- SAE: Blindness unilateral ([3]; human, in vivo, 48 weeks): 1 n
- SAE: Corneal infection ([3]; human, in vivo, 48 weeks): 1 n
- SAE: Depression ([3]; human, in vivo, 48 weeks): 0 n
- SAE: Eye disorders ([3]; human, in vivo, 48 weeks): 1 n
- SAE: Gastroenteritis ([3]; human, in vivo, 48 weeks): 1 n
- SAE: Infections and infestations ([3]; human, in vivo, 48 weeks): 2 n
- SAE: Psychiatric disorders ([3]; human, in vivo, 48 weeks): 0 n
- Subjects with serious AEs ([3]; human, in vivo, 48 weeks): 2 n
- Subjects with ≥1 AE ([3]; human, in vivo, 48 weeks): 99 n
- Body weight ([4]; CVC-high 100 mg/kg/day): 20.8 ± 2.7 g
- Maximum diameter of visible tumor nodules (mm) ([4]; CVC-high 100 mg/kg/day): 5.3±5.1 mm
- Body weight [4, 6]: 20.8 ± 2.7 g
- Maximum diameter of visible tumor nodules (mm) [4, 6]: 5.3 ± 5.1 mm
- mice that died (survival analysis) ([4]; CVC-high): Five out of twelve
- mice with GS-positive nodules ([4]; CVC-high): seven out of seven
- mice with HCC lesions (HE staining) ([4]; CVC-high): six out of seven
- Body weight ([4]; CVC-low 20 mg/kg/day): 22.9 ± 3.5 g
- Maximum diameter of visible tumor nodules (mm) ([4]; CVC-low 20 mg/kg/day): 4.8±5.4 mm
- Body weight [4, 7]: 22.9 ± 3.5 g
- Maximum diameter of visible tumor nodules (mm) [4, 7]: 4.8 ± 5.4 mm
- mice that died (survival analysis) ([4]; CVC-low): Six out of twelve
- mice with GS-positive nodules ([4]; CVC-low): five out of six
- mice with HCC lesions (HE staining) ([4]; CVC-low): five out of six
